This is an account of results in US6020340A, “Imidazopyridines” (Byk Gulden Lomberg Chemische Fabrik GmbH, priority 1996, dated 2000).

Molecules are shown by their SMILES.

The assay deals with PDE IV. As to the kind of experiment: Inhibition of PDE IV activity (method of Bauer and Schwabe, adapted to microtiter plates). The assay is classed as biochemical.
As to `COc1ccc(-c2nc3ncccc3[nH]2)c2cc(C(C)C)oc12` [Compound 1, 2-[7-Methoxy-2-(1-methylethyl)benzofuran-4-yl]imidazo[4,5-b]pyridine], the “Inhibition of PDE IV activity, -log IC50” value worked out at 7.41. With `CC(C)c1cc2c(-c3nc4ncccc4[nH]3)ccc(OC(F)F)c2o1` [Compound 2, 2-[7-Difluoromethoxy-2(1-methylethyl)benzofuran-4yl]imidazo[4,5-b]pyridine], the “Inhibition of PDE IV activity, -log IC50” value was 8.14. The same measure for `COc1ccc(-c2nc3ncccc3[nH]2)c2c1OC1(C=C2)CCCC1` [Compound 3, 2-[8-Methoxy-2,2-tetramethylene-1[2H]chromen-5-yl]imidazo[4,5-b]pyridine]: 5.83; for `COc1ccc(-c2nc3cnccc3[nH]2)c2cc(C3CCCC3)oc12` [Compound 4, 2-(2Cyclopentyl-7-methoxy-benzofuran-4-yl)imidazo[4,5-c]pyridine]: 7.74; for `COc1ccc(-c2nc3cnccc3[nH]2)c2c1OC1(C=C2)CCCC1` [Compound 5, 2-[8-Methoxy-2,2-tetramethylene-1[2H]chromen-5-yl]imidazo[4,5-c]pyridine]: 6.76. As for `CC(C)c1cc2c(-c3nc4cnccc4[nH]3)ccc(OC(F)F)c2o1` [Compound 6, 2-[7-Difluoromethoxy-2-(1-methylethyl)benzofuran-4-yl]imidazo[4,5-c]pyridine], the “Inhibition of PDE IV activity, -log IC50” value is recorded as 8.38.

For `COc1ccc(-c2nc3cnccc3[nH]2)c2cc(C(C)C)oc12` [Compound 7], the “Inhibition of PDE IV activity, -log IC50” value turned out to be 8.09.
